Patent publication US20230017786A1, “DEXTR[…] A DISEASE-MODIFYING TREATMENT FOR NEUROPSYCHIATRIC DISORDERS AND DISEASES” (priority 2020, published 2023)
Several values for one entry are separate records, joined by “and”; a condition that tells them apart may be missing. Equal entries are not always repeated.

Key:
[1] = biological target: T1, human NMDA receptor GluN1-GluN2C (Homo sapiens, UniProt Q05586+Q14957); assay: FLIPR calcium assay, test item effect on L-glutamate CRC, GluN1-GluN2C-CHO; type: cell-based
T1 construct: expressed in transfected cells; host or cells: CHO

[2] = biological target: T2, human NMDA receptor GluN1-GluN2B (Homo sapiens, UniProt Q05586+Q13224); assay: cell-based; type: cell-based
T2 construct: expressed in transfected cells; host or cells: CHO

[3] = system: Western diet fed Sprague-Dawley rats, liver; assay: Western diet treated rats, hepatic inflammation, steatosis and lipid metabolism genes; details: 10 mg/kg, gastric gavage, 15 days
[4] = Phase 1 SAD and MAD studies, pharmacokinetics
[5] = biological target: human GluN1-GluN2C NMDA receptor (Homo sapiens, UniProt Q05586+Q14957); assay: Manual patch clamp trapping assay, hGluN1/hGluN2C-CHO cells; details: test item 10 μM
[6] = biological target: T3, recombinant human NMDAR GluN1 plus GluN2A (Homo sapiens, UniProt Q05586+Q12879); assay: FLIPR calcium assay, gentamicin as PAM (Example 5 Part I), GluN2A cell line; type: cell-based; details: 10 μM test item; dextromethadone in presence and absence of 10 μM gentamicin
T3 construct: expressed in transfected cells; host or cells: CHO
Description: (§1) A FLIPR calcium assay was used to profile gentamicin using stable cell lines expressing diheteromeric recombinant human NMDARs, containing GluN1 plus one amongst GluN2A, GluN2B, GluN2C or GluN2D subunit.

[7] = biological target: T4, recombinant human NMDAR GluN1 plus GluN2D (Homo sapiens, UniProt O15399+Q05586); assay: FLIPR calcium assay, gentamicin as PAM (Example 5 Part I), GluN2D cell line; type: cell-based; details: 10 μM test item; dextromethadone in presence and absence of 10 μM gentamicin
T4 construct: expressed in transfected cells; host or cells: CHO
Description: as §1

[8] = biological target: T5, human NMDA receptor GluN1-GluN2D (Homo sapiens, UniProt O15399+Q05586); assay: FLIPR calcium assay, quinolinic acid, gentamicin, dextromethadone (Example 5 Part II), GluN1-GluN2D-CHO; type: cell-based; details: 10 μM glycine; for calcium response (mean±SEM): GluN2D, n=42
T5 construct: expressed in transfected cells; host or cells: CHO
Method in brief: (§2)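 CHO lines expressing diheteromeric human GluN1/GluN2A–D, loaded 1 h with Fluo-4, tested by FLIPR for intracellular calcium with 10 μM glycine present. Quinolinic acid, gentamicin and test items were run as concentration-response curves, alone or combined. EC50 obtained from a four-parameter Hill fit.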

[9] = biological target: T6, human NMDA receptor GluN1-GluN2A (Homo sapiens, UniProt Q05586+Q12879); assay: FLIPR calcium assay, quinolinic acid, gentamicin, dextromethadone (Example 5 Part II), GluN1-GluN2A-CHO; type: cell-based; parameters: calcium response (mean±SEM): unit not given here; details: 10 μM glycine; for calcium response (mean±SEM): GluN2A, n=42
T6 construct: expressed in transfected cells; host or cells: CHO
Method in brief: as §2

[10] = operational analysis for allosteric modulators
[11] = 0.04 μM L-Glu + 100 μM QA + 10 μM DXT
[12] = 0.04 μM L-Glu + 1000 μM QA + 10 μM DXT
[13] = 0.2 μM L-Glu + 100 μM QA + 10 μM DXT
[14] = 0.2 μM L-Glu + 1000 μM QA + 10 μM DXT
[15] = 1000 μM QA + 10 μg/ml GENT + 10 μM DXT
[16] = Table 41: 0.04 μM L-Glu + 10 μM DXT
[17] = Table 43: 0.2 μM L-Glu + 10 μM DXT

T2 sequence (Q13224 27-1484, other chains not shown): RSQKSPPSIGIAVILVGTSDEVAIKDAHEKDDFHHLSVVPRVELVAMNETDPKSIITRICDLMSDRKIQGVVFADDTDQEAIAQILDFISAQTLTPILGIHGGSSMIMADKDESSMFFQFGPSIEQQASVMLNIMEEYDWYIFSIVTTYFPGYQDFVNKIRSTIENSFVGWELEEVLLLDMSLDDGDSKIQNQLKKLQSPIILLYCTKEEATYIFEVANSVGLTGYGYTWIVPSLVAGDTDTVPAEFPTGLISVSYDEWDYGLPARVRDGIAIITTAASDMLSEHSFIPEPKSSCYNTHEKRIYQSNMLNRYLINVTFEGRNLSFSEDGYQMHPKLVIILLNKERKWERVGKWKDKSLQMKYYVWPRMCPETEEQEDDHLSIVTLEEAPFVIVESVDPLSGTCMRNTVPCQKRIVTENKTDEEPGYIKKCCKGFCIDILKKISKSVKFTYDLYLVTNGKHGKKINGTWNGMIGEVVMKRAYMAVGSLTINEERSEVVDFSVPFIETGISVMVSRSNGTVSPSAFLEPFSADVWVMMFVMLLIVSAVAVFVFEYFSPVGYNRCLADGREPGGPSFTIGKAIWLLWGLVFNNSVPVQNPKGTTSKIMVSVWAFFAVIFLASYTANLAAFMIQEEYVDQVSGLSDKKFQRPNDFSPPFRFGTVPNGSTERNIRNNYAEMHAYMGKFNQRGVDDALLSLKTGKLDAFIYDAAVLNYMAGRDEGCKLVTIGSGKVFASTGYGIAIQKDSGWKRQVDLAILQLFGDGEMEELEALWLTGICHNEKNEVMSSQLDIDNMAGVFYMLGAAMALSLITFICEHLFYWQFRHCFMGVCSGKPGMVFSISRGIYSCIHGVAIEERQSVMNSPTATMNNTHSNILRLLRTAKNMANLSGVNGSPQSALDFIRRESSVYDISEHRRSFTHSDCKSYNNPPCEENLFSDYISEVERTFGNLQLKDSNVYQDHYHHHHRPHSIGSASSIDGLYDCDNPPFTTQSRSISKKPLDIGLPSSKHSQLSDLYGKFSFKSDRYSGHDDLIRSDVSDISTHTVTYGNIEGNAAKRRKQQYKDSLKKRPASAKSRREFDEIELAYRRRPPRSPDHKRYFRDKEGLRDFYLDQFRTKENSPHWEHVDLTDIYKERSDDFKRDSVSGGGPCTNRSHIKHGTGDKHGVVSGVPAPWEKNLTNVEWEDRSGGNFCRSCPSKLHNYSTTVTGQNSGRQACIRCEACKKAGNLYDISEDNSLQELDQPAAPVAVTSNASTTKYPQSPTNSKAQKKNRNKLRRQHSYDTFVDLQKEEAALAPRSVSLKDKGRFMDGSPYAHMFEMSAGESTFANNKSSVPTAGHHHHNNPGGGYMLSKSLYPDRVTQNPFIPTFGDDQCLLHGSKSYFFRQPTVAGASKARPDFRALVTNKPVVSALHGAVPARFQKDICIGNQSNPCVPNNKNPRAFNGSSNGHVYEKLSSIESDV
T5 sequence (O15399 28-1336, other chains not shown): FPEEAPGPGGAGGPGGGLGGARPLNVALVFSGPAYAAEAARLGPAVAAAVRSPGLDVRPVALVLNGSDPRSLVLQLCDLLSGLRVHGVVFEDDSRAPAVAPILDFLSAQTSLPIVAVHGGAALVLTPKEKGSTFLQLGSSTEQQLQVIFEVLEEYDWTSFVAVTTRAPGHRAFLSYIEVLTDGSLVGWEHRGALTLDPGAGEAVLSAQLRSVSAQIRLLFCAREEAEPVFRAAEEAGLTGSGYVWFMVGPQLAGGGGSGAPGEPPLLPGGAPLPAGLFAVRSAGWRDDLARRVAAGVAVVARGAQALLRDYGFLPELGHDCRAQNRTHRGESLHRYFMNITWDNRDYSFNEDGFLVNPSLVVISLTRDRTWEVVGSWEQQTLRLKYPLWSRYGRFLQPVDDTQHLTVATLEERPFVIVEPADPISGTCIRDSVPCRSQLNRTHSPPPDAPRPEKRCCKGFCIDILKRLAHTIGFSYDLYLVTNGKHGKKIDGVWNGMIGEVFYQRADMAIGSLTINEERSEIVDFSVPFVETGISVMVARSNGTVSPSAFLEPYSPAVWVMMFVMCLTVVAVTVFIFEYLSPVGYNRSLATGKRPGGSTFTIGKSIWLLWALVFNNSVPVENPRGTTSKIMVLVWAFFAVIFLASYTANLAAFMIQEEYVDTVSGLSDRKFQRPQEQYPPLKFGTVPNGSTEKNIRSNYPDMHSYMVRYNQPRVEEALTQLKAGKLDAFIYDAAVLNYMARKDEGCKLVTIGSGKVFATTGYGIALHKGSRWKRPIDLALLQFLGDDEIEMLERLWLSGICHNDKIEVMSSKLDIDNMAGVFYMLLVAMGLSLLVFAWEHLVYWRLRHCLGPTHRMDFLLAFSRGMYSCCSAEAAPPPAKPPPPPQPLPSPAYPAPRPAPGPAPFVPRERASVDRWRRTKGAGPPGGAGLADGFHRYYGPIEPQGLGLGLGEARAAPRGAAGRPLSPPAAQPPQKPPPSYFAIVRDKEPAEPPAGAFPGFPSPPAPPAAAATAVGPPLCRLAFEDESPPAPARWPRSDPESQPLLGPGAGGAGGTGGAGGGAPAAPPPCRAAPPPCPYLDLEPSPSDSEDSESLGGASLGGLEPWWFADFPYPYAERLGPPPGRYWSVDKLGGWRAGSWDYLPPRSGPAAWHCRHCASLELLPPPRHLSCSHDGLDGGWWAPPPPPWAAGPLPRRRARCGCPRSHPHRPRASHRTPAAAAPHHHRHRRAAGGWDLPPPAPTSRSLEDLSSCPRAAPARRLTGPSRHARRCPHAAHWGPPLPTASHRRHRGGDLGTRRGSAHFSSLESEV
T4 sequence (O15399 28-1336, other chains not shown): as above
T6 sequence (Q12879 23-1464, other chains not shown): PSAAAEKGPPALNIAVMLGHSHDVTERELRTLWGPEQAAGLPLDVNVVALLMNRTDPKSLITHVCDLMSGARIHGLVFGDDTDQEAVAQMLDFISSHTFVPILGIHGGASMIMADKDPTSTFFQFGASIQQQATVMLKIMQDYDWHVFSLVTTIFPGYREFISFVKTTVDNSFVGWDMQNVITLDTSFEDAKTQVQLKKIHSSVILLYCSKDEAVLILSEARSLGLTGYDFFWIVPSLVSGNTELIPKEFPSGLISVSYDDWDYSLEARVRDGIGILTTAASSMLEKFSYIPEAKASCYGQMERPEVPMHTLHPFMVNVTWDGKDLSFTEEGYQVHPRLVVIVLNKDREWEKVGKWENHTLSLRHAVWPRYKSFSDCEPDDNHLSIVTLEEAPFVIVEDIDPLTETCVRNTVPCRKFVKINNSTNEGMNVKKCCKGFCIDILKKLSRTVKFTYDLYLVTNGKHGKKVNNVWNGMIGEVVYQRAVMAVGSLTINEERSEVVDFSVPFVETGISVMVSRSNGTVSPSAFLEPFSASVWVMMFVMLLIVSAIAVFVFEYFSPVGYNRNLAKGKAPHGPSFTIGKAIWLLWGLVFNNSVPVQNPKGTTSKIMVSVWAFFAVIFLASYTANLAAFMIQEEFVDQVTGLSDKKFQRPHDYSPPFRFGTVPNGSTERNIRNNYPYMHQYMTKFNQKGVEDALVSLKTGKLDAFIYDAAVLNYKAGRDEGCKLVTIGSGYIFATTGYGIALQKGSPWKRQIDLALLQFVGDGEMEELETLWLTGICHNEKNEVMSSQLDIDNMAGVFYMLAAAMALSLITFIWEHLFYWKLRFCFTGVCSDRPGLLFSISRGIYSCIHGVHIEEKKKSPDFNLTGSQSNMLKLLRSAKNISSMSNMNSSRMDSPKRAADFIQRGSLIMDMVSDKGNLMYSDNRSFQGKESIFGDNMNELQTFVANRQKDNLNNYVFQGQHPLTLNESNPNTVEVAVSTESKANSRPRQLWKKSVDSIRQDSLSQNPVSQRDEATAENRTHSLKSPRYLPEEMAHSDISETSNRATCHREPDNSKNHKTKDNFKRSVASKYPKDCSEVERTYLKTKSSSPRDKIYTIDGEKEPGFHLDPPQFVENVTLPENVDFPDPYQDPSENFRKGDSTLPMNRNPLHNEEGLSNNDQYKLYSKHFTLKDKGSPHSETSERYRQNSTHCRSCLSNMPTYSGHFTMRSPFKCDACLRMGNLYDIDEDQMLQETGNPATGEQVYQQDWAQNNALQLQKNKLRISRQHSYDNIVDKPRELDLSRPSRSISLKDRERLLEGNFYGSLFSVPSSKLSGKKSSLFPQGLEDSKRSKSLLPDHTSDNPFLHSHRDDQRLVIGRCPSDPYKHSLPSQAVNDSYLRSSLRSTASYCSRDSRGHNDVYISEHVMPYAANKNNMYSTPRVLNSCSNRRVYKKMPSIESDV

SMILES: CCC(=O)C(C[C@H](C)N(C)C)(c1ccccc1)c1ccccc1 [Dextromethadone, dextromethadone]
- α, estimated cooperativity term [1, 10]: 0.17
- L-glutamate CRC HillSlope ([1]; with test item 49 nM): 1.3
- L-glutamate CRC LogEC50 ([1]; with test item 49 nM): −6.8
- L-glutamate CRC HillSlope ([1]; with test item 195 nM): 1.4
- L-glutamate CRC LogEC50 ([1]; with test item 195 nM): −6.8
- L-glutamate CRC HillSlope ([1]; with test item 781 nM): 2.2
- L-glutamate CRC LogEC50 ([1]; with test item 781 nM): −6.8
- L-glutamate CRC HillSlope ([1]; with test item 3.1 μM): 1.4
- L-glutamate CRC LogEC50 ([1]; with test item 3.1 μM): −6.8
- L-glutamate CRC HillSlope ([1]; with test item 12.5 μM): 1.5
- L-glutamate CRC LogEC50 ([1]; with test item 12.5 μM): −6.7
- L-glutamate CRC HillSlope ([1]; with test item 50 μM): 1.7
- L-glutamate CRC LogEC50 ([1]; with test item 50 μM): −6.6
- α, estimated cooperativity term [2, 10]: 0.26
- L-glutamate CRC HillSlope ([2]; with test item 49 nM): 1.2
- L-glutamate CRC LogEC50 ([2]; with test item 49 nM): −7.0
- L-glutamate CRC HillSlope ([2]; with test item 195 nM): 1.2
- L-glutamate CRC LogEC50 ([2]; with test item 195 nM): −6.9
- L-glutamate CRC HillSlope ([2]; with test item 781 nM): 1.2
- L-glutamate CRC LogEC50 ([2]; with test item 781 nM): −6.9
- L-glutamate CRC HillSlope ([2]; with test item 3.1 μM): 1.1
- L-glutamate CRC LogEC50 ([2]; with test item 3.1 μM): −6.9
- L-glutamate CRC HillSlope ([2]; with test item 12.5 μM): 1.3
- L-glutamate CRC LogEC50 ([2]; with test item 12.5 μM): −6.7
- L-glutamate CRC HillSlope ([2]; with test item 50 μM): 1.1
- L-glutamate CRC LogEC50 ([2]; with test item 50 μM): −6.4
- CCL2 gene expression in liver (qRT-PCR) [3]: didn't affect significantly this increase
- GPAT4 gene expression in liver (qRT-PCR) [3]: significant drop of their expression
- IL-6 gene expression in liver (qRT-PCR) [3]: able to counteract this effect
- IL-10 gene expression in liver (qRT-PCR) [3]: able to counteract this effect
- SREPB2 gene expression in liver (qRT-PCR) [3]: significant drop of their expression
- hepatic steatosis, histology [3]: reduction of steatosis
- conversion of dextromethadone to levomethadone in vivo ([4]; SAD and MAD subjects): No detectable conversion
- pharmacokinetic linearity ([4]; SAD and MAD, racially diversified subjects): linear pharmacokinetics with dose proportionality
- Block trapped (BT), trapping [5]: 85.9% and 85.9%±1.9%
- Block (B) of 10/10 μM L-glutamate/glycine-evoked currents ([5]; listed as dextromethadone): 83.8%±1.2% and 83.8%
- Block trapped (BT), trapping ([5]; listed as dextromethadone): 85.9% and 85.9%±1.9%
- Residual block (BR) ([5]; listed as dextromethadone): 71.8%±1.1% and 71.8%
- calcium entry induced by 0.04 μM L-glutamate [6]: significantly reduced
- calcium entry induced by 0.2 μM L-glutamate [6]: significantly reduced
- calcium entry induced by 10 μM L-glutamate [6]: significantly reduced
- calcium entry induced by 0.04 μM L-glutamate [7]: significantly reduced
- calcium entry induced by 0.2 μM L-glutamate [7]: significantly reduced
- calcium entry induced by 10 μM L-glutamate [7]: significantly reduced
- calcium response (mean±SEM) ([8]; 0.04 μM L-Glu + 10 μM DXT): 3.5 ± 0.2
- calcium response (mean±SEM) [8, 11]: 7.1 ± 0.4
- calcium response (mean±SEM) [8, 12]: 33 ± 1.6
- calcium response (mean±SEM) ([8]; 0.2 μM L-Glu + 10 μM DXT): 71 ± 2.3
- calcium response (mean±SEM) [8, 13]: 69 ± 1.4
- calcium response (mean±SEM) [8, 14]: 43 ± 1.1
- % effect on calcium entry, 100 QA + 10 DXT ([8]; 100 μM QA + 10 μM DXT): −2.4 ± 0.2%
- calcium response (mean±SEM) ([8]; 1000 μM QA + 10 μM DXT): 32 ± 0.9
- % effect on calcium entry, 1000 QA + 10 DXT ([8]; 1000 μM QA + 10 μM DXT): 32 ± 0.9%
- calcium response (mean±SEM) [8, 15]: 36 ± 0.8
- calcium response (mean±SEM) [8, 16]: 3.5 ± 0.2
- calcium response (mean±SEM) [8, 17]: 71 ± 2.3
- calcium response (mean±SEM) ([9]; 0.04 μM L-Glu + 10 μM DXT): 0.5 ± 0.2
- calcium response (mean±SEM) [9, 11]: 3.4 ± 0.2
- calcium response (mean±SEM) [9, 12]: 32 ± 0.7
- calcium response (mean±SEM) ([9]; 0.2 μM L-Glu + 10 μM DXT): 14 ± 0.4
- calcium response (mean±SEM) [9, 13]: 15 ± 0.5
- calcium response (mean±SEM) [9, 14]: 35 ± 1.0
- % effect on calcium entry, 100 QA + 10 DXT ([9]; 100 μM QA + 10 μM DXT): −0.2 ± 0.2%
- calcium response (mean±SEM) ([9]; 1000 μM QA + 10 μM DXT): 34 ± 0.6
- % effect on calcium entry, 1000 QA + 10 DXT ([9]; 1000 μM QA + 10 μM DXT): 34 ± 0.6%
- calcium response (mean±SEM) [9, 15]: 34 ± 0.6
- calcium response (mean±SEM) [9, 16]: 0.5 ± 0.2
- calcium response (mean±SEM) [9, 17]: 14 ± 0.4
